Patent US11612576B2 (Thiogenesis Therapeutics, Inc., priority 2017, dated 2023)
Counter-ions that a name gives are not always drawn. Like-named read-outs stand apart in the source and are kept apart here.

Experiments:
[1] = in vivo; cited from earlier work
[2] = system: CYP1A2, CYP2B6, CYP2C8, CYP2C9, CYP2C19, CYP2D6, CYP2E1, CYP2A6, CYP3A4; conditions: in vitro; cited from earlier work
[3] = system: CYP1A2, CYP2A6, CYP2B6, CYP2C8, CYP2C9, CYP2C19, CYP2D6, CYP2E1 and CYP3A4; conditions: in vitro; cited from earlier work
[4] = system: P-gp, OCT2, BCRP, OATP1B1, OATP1B3, OAT1, OAT3, OCT1; conditions: in vitro; cited from earlier work
[5] = target: T1, tissue transglutaminase (transglutaminase 2, TG2) (Homo sapiens, UniProt P21980); conditions: cited from earlier work
T1 sequence (P21980 1-687): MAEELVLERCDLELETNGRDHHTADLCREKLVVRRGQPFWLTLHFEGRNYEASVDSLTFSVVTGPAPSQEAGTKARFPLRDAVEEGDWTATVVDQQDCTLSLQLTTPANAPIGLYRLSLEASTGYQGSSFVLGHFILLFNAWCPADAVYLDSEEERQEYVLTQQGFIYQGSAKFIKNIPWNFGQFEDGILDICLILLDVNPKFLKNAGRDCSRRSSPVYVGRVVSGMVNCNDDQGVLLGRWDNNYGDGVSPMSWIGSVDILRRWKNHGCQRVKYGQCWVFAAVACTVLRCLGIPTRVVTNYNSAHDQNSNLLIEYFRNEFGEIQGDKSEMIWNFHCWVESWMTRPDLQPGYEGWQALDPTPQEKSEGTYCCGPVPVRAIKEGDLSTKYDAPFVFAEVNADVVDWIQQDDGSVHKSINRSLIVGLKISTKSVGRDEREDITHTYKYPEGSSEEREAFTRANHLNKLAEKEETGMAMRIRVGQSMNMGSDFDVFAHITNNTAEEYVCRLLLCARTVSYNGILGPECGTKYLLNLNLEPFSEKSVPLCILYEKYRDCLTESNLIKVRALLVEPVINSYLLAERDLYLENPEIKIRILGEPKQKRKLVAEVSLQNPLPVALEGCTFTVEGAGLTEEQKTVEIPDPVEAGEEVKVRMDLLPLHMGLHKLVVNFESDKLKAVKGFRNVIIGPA

[6] = system: matrix metalloproteinases (MMPs); conditions: high concentrations (e.g. 25 millimolar); cited from earlier work
Plasmodium Falciparum = conditions: in vitro and in mouse models of malaria; cited from earlier work
Pseudomonas aeruginosa = conditions: cited from earlier work
kidney fibrosis = conditions: ureteral stenosis and renal ischemia/reperfusion injury; cited from earlier work
[7] = system: erythrocytes from sickle cell anemia patients; conditions: cited from earlier work
xenograft models = conditions: cited from earlier work
mouse models of HD = conditions: cited from earlier work
[8] = Dissolution of the dose in saline before gavage; assay type: physicochemical; conditions: 120 mg/kg dose (311.68 mg/kg compound 2) in 3 milliliters of saline
[9] = Physical characteristics of TTI-0102 salt forms; assay type: physicochemical; conditions: compared with free base
Procedure: TTI-0102 was prepared as in Example 14. The crude product was obtained by evaporation of water and DMF. The residue was suspended in ethyl acetate/water; precipitated dicyclohexylurea (DCU) was filtered off. The solution was evaporated and suspended in methanol. The precipitate (unreacted pantothenic acid) was filtered off. The filtrate was concentrated and then dissolved in a small volume of methanol. After addition of dichloromethane the cystamine hydrochloride precipitated and was filtered off. After evaporation of solvent, the residue was crystallized from methanol:acetone (1:10) to provide TTI-1 hydrochloride.
The tartrate salt was formed and crystallized from a MeOH:DCM mixture. The solid form was filtered off (precipitate) and filtrate was evaporated.

[10] = cited from earlier work
[11] = Rat pharmacokinetic study of compound 2: plasma cysteamine after gavage; assay type: in vivo, Sprague-Dawley rats; conditions: cysteamine HCl, 30 mg/kg cysteamine base
Procedure: The compound 2 doses were prepared for 250 gram rats, but the actual masses of the rats at the time of drug administration varied from 267-300 grams, so the actual doses, normalized to body weight, ranged from 26.1-27.1 mg/kg in group 1, 51.7-56.2 mg/kg in group 2 and 108.3-109.5 mg/kg in group 3. Nonetheless, for convenience those doses are referred to as 30, 60 and 120 mg/kg.
Plasma was obtained from blood by centrifugation and snap frozen.

[12] = rat, in vivo
Procedure: Thus in the discussion below, and in the accompanying figures, a “30 mg/kg” dose of TTI-0102 means 68.73 mg/kg was administered, a “60 mg/kg” dose of TTI-0102 means 137.46 mg/kg was administered and a “100 mg/kg” dose of TTI-0602 (aka compound 2) means 229.1 mg/kg was administered.
Each of the four compounds was administered via gavage to three male Sprague-Dawley rats weighing approximately 300 grams. All doses were dissolved in 2.5 milliliters of saline.
Blood samples were obtained from rats immediately after dosing (within one minute) and 10, 20, 30, 45, 60, 90, 120, 180, 240, 300 and 360 minutes after dosing via carotid artery catheters surgically implanted before the PK study. Plasma was obtained from blood by centrifugation, snap frozen and stored at −80 degrees Celsius. Several days later plasma samples were thawed on ice and each aliquoted to two paired tubes (20 μL per tube), one of which was processed for measurement of thiols (after quantitative disulfide bond reduction), while the other was processed for analysis of disulfides.
Briefly, 2.2 ul of freshly prepared 50 mM TCEP stock solution was added to 20 ul of plasma and the sample incubated at 37 degrees C. for 45 minutes. The volume of plasma in the paired (non-reduced) sample was adjusted by adding 2.2 ul of deionized water.
After the TCEP reduction step all plasma samples were deproteinized by adding 3.5 volumes of ice cold acetonitrile (ACN)/1% formic acid (FA) solution containing internal standards (77 μL of ACN/1% FA solution was added to 22.2 μL of plasma).
The denatured protein was pelleted by centrifugation at 14,000 rpm for 10 minutes at 4 degrees C. in a microcentrifuge. The supernatant (25 ul) was removed to a new tube, mixed with 75 ul of ACN/0.1% FA solution and injected directly into a 150×2 mm Atlantis hydrophilic interaction liquid chromatography (HILIC) column (Waters; Milford, Mass.). Metabolites were analyzed using a Nexera X2 U-HPLC (Shimadzu) and a Q-Exactive hybrid quadrupole Orbitrap mass spectrometer (Thermo Fisher Scientific). […]

[13] = Cysteamine and pantetheine in rat gastrointestinal contents six hours after dosing (Example 13); assay type: in vivo, Sprague-Dawley rats
Procedure: In addition to the plasma samples, gastrointestinal contents (stomach contents, proximal small intestinal contents, distal small intestinal contents and cecum/colon contents) were obtained from rats at the end of the study (6 hours after dosing) and snap frozen. Tissue levels of cysteamine and pantetheine were measured in the gastrointestinal contents. The protocol for tissue analysis entailed (i) smashing frozen tissue fragments over dry ice to obtain small pieces; (ii) weighing several frozen tissue pieces (˜[…]) into a tared 1.5 ml microcentrifuge tube with two metal ball bearings and immediately storing on dry ice; (iii) homogenizing tissue fragments cryogenically using a Retsch Cryomill at 250 hertz for 5 minutes; (iv) thawing each sample on ice, adding two volumes of water (w:v., i.e. 2 microliters of water were added for each milligram of homogenized tissue) to make an approximately 1:3 dilution; (v) removing 20 ul of the resuspended tissue powder to a new tube, adding 2.2 ul of 50 mM TCEP (5 mM final concentration) and incubating for 45 minutes at 37 degrees C. (TCEP treated samples), or adding 2.2 ul of deioinized water in place of TCEP (no TCEP samples); (vi) adding 3.5 volumes of acetonitrile:0.1% formic acid, vortex mixing for 15 seconds, and then pelleting precipitated protein by centrifugation for 10 minutes at 14,000 rpm in a microcentrifuge at 4 degrees C.; (vii) transferring 25 ul of supernatant to a new tube containing 75 ul of ACN/0.1% FA; (vii) injecting samples on the LC-MS apparatus described above, using the same column and run conditions as for plasma samples.

With `NCCS` [cysteamine, 2-aminoethanethiol] as the compound, how does the “half life in blood” value [1] read?
The value was “about 25 minutes”.

And the “metabolism by CYP1A2, CYP2B6, CYP2C8, CYP2C9, CYP2C19, CYP2D6 and CYP2E1” value [2]?
The value was “likely to be metabolized by multiple CYP enzymes”.

What about the “metabolism by CYP2A6 or CYP3A4” value [2] of the same compound?
The value was “not by CYP2A6 or CYP3A4”.

And the “inhibition of CYP1A2, CYP2A6, CYP2B6, CYP2C8, CYP2C9, CYP2C19, CYP2D6, CYP2E1 and CYP3A4” value [3]?
The value was “not an inhibitor”.

And the “substrate of BCRP, OATP1B1, OATP1B3, OAT1, OAT3 and OCT1” value [4]?
Its value is “not a substrate”.

And the “substrate of P-gp and OCT2” value [4]?
The value was “is a substrate”.

And the “inhibition of tissue transglutaminase (TG2)” value [5]?
Its value is “inhibits”.

What about the “inhibition of matrix metalloproteinases” value [6] of the same compound?
Its value is “inhibits”.

And the “proliferation of Plasmodium Falciparum” value (Plasmodium Falciparum)?
The value was “inhibits proliferation”.

What about the “activity against Pseudomonas aeruginosa and other CF pathogens” value (Pseudomonas aeruginosa) of the same compound?
The value was “bactericidal”.

And the “efficacy in mouse models of kidney fibrosis” value (kidney fibrosis)?
Its value is “effective”.

What about the “sickling under hypoxic conditions” value [7] of the same compound?
Its value is “marked inhibition of sickling”.

And the survival of mice (xenograft models)?
The survival of mice was “prolonged survival of mice in a dose-dependent manner without toxicity”.

What about the “beneficial effects in R6/2 HD mouse model” value (mouse models of HD; R6/2 mouse model) of the same compound?
Its value is “amelioration of weight loss and motor abnormalities, and prolongation of survival”.

For `CC(=O)NCCSSCCNC(=O)CCNC(=O)[C@H](O)C(C)(C)CO` [compound 2, N-acetylcysteamine-(R)-pantetheine disulfide], which “dissolution of dose in saline” value [8] is on record?
The value was “did not completely dissolve in saline”.

For `CC(C)(CO)[C@@H](O)C(=O)NCCC(=O)NCCSSCCN` [acetate salt of TTI-0102], which “stability of salt form” value [9] is on record?
The value was “more stable than the free base”.

Which “half life in blood” value [1] does the source give for `CC(C)(COP(=O)(O)O)[C@@H](O)C(=O)NCCC(=O)NCCS` [4-phosphopantetheine] here?
The value was “over 3 hours”.

For `NCCS` [cysteamine bitartrate], which Cmax ([10]; read-out: C max of cysteamine, cysteamine bitartrate 20 mg/kg cysteamine base equivalent) is on record?
Its Cmax is 81.9 µM.

What does the source list for `NCCSSCCN` [cystamine]?
inhibition of tissue transglutaminase (TG2) [5]: TG2 inhibitor; effects in several mouse models of Huntington's disease (mouse models of HD; mouse, in vivo): improves motor function and extends life-span

With `NCCS.O=C(O)C(O)C(O)C(=O)O` (stereo not shown) [cysteamine bitartrate] as the compound, how does the “fraction of cysteamine eliminated by 150 minutes (inferred)” value ([10]; cysteamine bitartrate 20 mg/kg) read?
Its value is “over 95%”.

And the “time by which cysteamine levels returned to baseline” value ([10]; cysteamine bitartrate 20 mg/kg)?
Its value is no more than 2 h.

And the “tissue half life of cysteamine” value ([10]; cysteamine bitartrate 20 mg/kg)?
The value was 25 to 29 min.

What does the source list for `Cl.NCCS` [cysteamine HCl, cysteamine hydrochloride]?
peak plasma cysteamine concentration [11]: over 200 uM; time by which cysteamine concentration declined to less than half maximal [11]: ≤ 90 min; time in which half of the dose is absorbed [12]: one; time of peak observed concentration after gavage [12]: 10 min; Cmax ([12]; 30 mg/kg): ~55.3 µM

Which “fraction of small intestinal pantetheine in the form of the thiol” value ([13]; compound 1 100 mg/kg, no TCEP vs TCEP samples) does the source give for `CC(C)(CO)[C@@H](O)C(=O)NCCC(=O)NCCSSCCN` [compound 1, cysteamine-(R)-pantetheine disulfide] here?
The value was “about half”.

What about the “pantetheine at all levels of the gastrointestinal tract (stomach, proximal and distal small intestine, colon)” value ([13]; compound 1 100 mg/kg, six hours after dosing) of the same compound?
The value was “high levels of pantetheine are present”.

What about the “colon contents (TCEP reduced)” value ([13]; compound 1, six hours after dosing) of the same compound?
The value was “high concentrations of both cysteamine and pantetheine”.
